{"source": "patent US20100150944A1", "about": "“METHODS AND COMPOSITIONS FOR DIAGNOSIS AND TREATMENT OF DEPRESSION AND ANXIETY” (MODGENE, LLC, priority 2007, published 2010)", "key": {"DBA/2J mice [1]": {"tested_on": "DBA/2J mice", "test": "forced-swim test, DBA/2J mice", "type": "in vivo, mouse", "details": "DBA/2J mice versus C57BL/6J mice", "protocol": "As described above, the murine responses in forced swim and tail suspension tests provides a model for determining depression. We tested C57BL/6J and DBA/2J mice in the forced-swim and tail-suspension tests. In the forced-swim test, mice were gently placed in a clear plastic cylinder, diameter of 16 cm, height 25 cm, filled with 10 cm of clear water at 25° C. Test duration was 6 minutes and immobility, defined as the absence of all movement except minor movement required for the mouse to keep its head above the surface, was measured during the last 4 minutes. In the tail-suspension test, mice were suspended from a metal rod mounted 50 cm above the surface by fastening the tail to the rod with adhesive tape. The duration of the test was 6 minutes and immobility, defined as the absence of all but respiratory movements, was measured during the last 4 minutes. During the last 4 minutes of a 6-minute forced swim, unmedicated inbred C57BL/6J mice spent 152 seconds of the possible 240 seconds immobile (FIG. 2). In contrast, inbred DBA/2J mice had baseline (unmedicated) immobilities of 47 seconds (see FIG. 2). […] We investigated the hypothesis that the differences between these two inbred mouse lines that result in differing baseline immobilities in the forced-swim test at least in part arise from differences in the amount of mRNA that accumulates from specific genes. […]"}, "[2]": {"tested_on": "p90 ribosomal S6 kinase, or RSK", "details": "cultured tumor cells; cited from earlier work"}, "C57BL/6J mice [3]": {"tested_on": "C57BL/6J mice", "test": "forced-swim test, C57BL/6J mice", "type": "in vivo, mouse", "details": "for immobility in forced-swim test: last 4 minutes of 6-minute test", "protocol": "Briefly, in the Porsolt forced swim test, swim sessions are conducted by placing animals in containers with a level of water selected to be deep enough so that the animal cannot touch the bottom with its hind limbs or tail, nor can it escape. Two swim sessions are conducted, an initial 15 minute pretest one day prior to administration of the antidepressant drug and a second 5 minute test after administration of the drug (e.g., infusion of the drug into the midbrain) is begun. Each animal's 5 minute test sessions are videotaped for scoring later. The amount of time the animal spends active (swimming, exploring or trying to escape) and the time the rat is immobile (not struggling and making only those movements necessary to keep its head above water) is measured. Drugs with anti-depressant like activity decrease the immobility time.\nAs described above, the murine responses in forced swim and tail suspension tests provides a model for determining depression. We tested C57BL/6J and DBA/2J mice in the forced-swim and tail-suspension tests. In the forced-swim test, mice were gently placed in a clear plastic cylinder, diameter of 16 cm, height 25 cm, filled with 10 cm of clear water at 25° C. Test duration was 6 minutes and immobility, defined as the absence of all movement except minor movement required for the mouse to keep its head above the surface, was measured during the last 4 minutes. In the tail-suspension test, mice were suspended from a metal rod mounted 50 cm above the surface by fastening the tail to the rod with adhesive tape. The duration of the test was 6 minutes and immobility, defined as the absence of all but respiratory movements, was measured during the last 4 minutes. During the last 4 minutes of a 6-minute forced swim, unmedicated inbred C57BL/6J mice spent 152 seconds of the possible 240 seconds immobile (FIG. 2). In contrast, inbred DBA/2J mice had baseline (unmedicated) immobilities of 47 seconds (see FIG. 2). […] We investigated the hypothesis that the differences between these two inbred mouse lines that result in differing baseline immobilities in the forced-swim test at least in part arise from differences in the amount of mRNA that accumulates from specific genes.\nWe purchased some of the compound (Toronto Research Chemicals Inc., 2 Brisbane Rd., North York, Ontario, Canada M3J 2J8) and dissolved it in phosphate-buffered saline (PBS) containing 2.5 percent methanol.\nWhen plain PBS/methanol solution (without 3Ac-SL0101) was administered to C57BL/6J mice, their immobility was 127 seconds. When the solution containing the 3Ac-SL0101 compound was administered in a very low dose, their immobility was reduced to 78 seconds, indicative of an antidepressant-like effect. […] When the compound was administered to DBA/2J mice, it was effective at an approximately 10-fold lower dose than in C57BL/6J mice, highly consistent with the notion that it is functioning by reducing the activity of rpS6."}, "mice": {"tested_on": "mice", "test": "tail-suspension test", "details": "mouse, in vivo", "protocol": "An additional procedure for monitoring the effects of antidepressants involves suspending the mice by the tail from a lever and recording movements of the animal. The total duration of the test (usually about 6 minutes) can be divided into periods of agitation and immobility. Antidepressants will generally decrease the duration of immobility (Stem et al., Psychopharmacology 85(3) 367-70). A computerized version of this test, referred to as […]-TST has been developed and is well known to those of skill in that art as a primary screening test for antidepressant activity (Stem et al., Prog. Neuropsychpharmacol. Biol. Psychiatry 11(6)659-671, 1987). Additional devices for monitoring depression also are known to those of skill in the art (Nomura et al., Yakubutsu Seishiiz Kodo 12(5)207-13, 1992).\nAs described above, the murine responses in forced swim and tail suspension tests provides a model for determining depression. We tested C57BL/6J and DBA/2J mice in the forced-swim and tail-suspension tests. […] Test duration was 6 minutes and immobility, defined as the absence of all movement except minor movement required for the mouse to keep its head above the surface, was measured during the last 4 minutes. […] The duration of the test was 6 minutes and immobility, defined as the absence of all but respiratory movements, was measured during the last 4 minutes. […]"}, "p90 RSK": {"tested_on": "p90 RSK", "details": "cited from earlier work"}, "DBA/2J mice [4]": {"tested_on": "DBA/2J mice", "details": "baseline 100 seconds; cited from earlier work"}, "C57BL/6J mice [5]": {"tested_on": "C57BL/6J mice", "details": "10 mg/kg, last 4 minutes of 6-minute forced swim, unmedicated 143 seconds; cited from earlier work"}, "RSK2": {"molecular_target": "RSK2 (Homo sapiens, UniProt P51812)", "sequence (P51812 whole entry)": "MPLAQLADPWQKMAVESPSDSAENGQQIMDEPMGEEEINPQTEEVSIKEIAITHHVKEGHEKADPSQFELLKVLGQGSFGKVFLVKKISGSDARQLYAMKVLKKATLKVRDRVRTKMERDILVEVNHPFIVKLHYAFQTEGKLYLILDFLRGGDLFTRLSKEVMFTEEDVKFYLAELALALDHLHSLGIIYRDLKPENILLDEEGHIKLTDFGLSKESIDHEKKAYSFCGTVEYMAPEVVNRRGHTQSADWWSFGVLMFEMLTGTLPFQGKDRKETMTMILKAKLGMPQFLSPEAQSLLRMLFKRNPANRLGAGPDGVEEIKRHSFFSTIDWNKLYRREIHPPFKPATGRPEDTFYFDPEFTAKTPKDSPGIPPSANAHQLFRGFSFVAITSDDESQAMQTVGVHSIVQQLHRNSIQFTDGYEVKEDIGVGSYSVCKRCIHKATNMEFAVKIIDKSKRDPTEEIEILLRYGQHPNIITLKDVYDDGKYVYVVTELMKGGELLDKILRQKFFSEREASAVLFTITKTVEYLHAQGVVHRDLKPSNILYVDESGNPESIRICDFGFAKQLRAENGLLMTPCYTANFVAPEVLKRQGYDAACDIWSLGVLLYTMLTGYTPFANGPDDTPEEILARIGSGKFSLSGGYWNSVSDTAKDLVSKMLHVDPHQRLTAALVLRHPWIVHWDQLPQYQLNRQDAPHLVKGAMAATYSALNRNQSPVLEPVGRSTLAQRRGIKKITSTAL", "details": "cited from earlier work"}}, "data": [{"smiles": "CC(=O)O[C@@H]1[C@@H](OC(C)=O)[C@H](C)O[C@@H](Oc2c(-c3ccc(O)cc3)oc3cc(O)cc(O)c3c2=O)[C@@H]1OC(C)=O", "note": "[3Ac-SL0101]", "values": [{"measurement": "effective dose in DBA/2J mice relative to C57BL/6J mice", "setting": "DBA/2J mice [1]", "value": "approximately 10 fold lower dose"}, {"measurement": "inhibition of RSK activity", "setting": "[2]", "value": "inhibits the activity of this kinase"}, {"measurement": "immobility in forced-swim test", "setting": "C57BL/6J mice [3]; 20-fold higher dose", "value": 0, "unit": "s"}, {"measurement": "dose response of immobility in forced-swim test", "setting": "C57BL/6J mice [3]; varying dosages, FIG. 3", "value": "monotonic dose-response effect"}, {"measurement": "immobility in forced-swim test", "setting": "C57BL/6J mice [3]; very low dose, PBS/methanol control 127 seconds", "value": 78, "unit": "s"}, {"measurement": "immobility in tail-suspension test", "setting": "mice", "value": "reduced immobility"}]}, {"smiles": "CC(C)CCN1c2nc(Nc3cc(F)c(O)c(F)c3)ncc2N(C)C(=O)C1C", "note": "(stereo not shown) [BI-D1870]", "values": [{"measurement": "inhibition of p90 RSK", "setting": "p90 RSK", "value": "specific inhibitor of the p90 RSK"}, {"measurement": "time of immobility in forced swim test", "setting": "C57BL/6J mice [3]; FIG. 4", "value": "substantial reduction"}]}, {"smiles": "CNCCCN1c2ccccc2CCc2ccccc21", "note": "[desipramine]", "values": [{"measurement": "immobility in forced swim", "setting": "DBA/2J mice [4]", "value": 50, "unit": "s"}, {"measurement": "immobility in forced swim", "setting": "C57BL/6J mice [5]", "value": 100, "unit": "s"}]}, {"smiles": "CNCCC(Oc1ccc(C(F)(F)F)cc1)c1ccccc1", "note": "(stereo not shown) [fluoxetine]", "values": [{"measurement": "immobility in forced swim", "setting": "DBA/2J mice [4]", "value": 50, "unit": "s"}]}, {"smiles": "O=c1c(O)c(-c2ccc(O)cc2)oc2cc(O)cc(O)c12", "note": "[kaempferol]", "values": [{"measurement": "inhibition of RSK2", "setting": "RSK2", "value": "inhibitor of the RSK2"}, {"measurement": "immobility time in forced-swim test", "setting": "C57BL/6J mice [3]; dose dependent manner, within minutes after intraperitoneal injection", "value": "reduce immobility time"}]}]}
